≈ marks a conversion by molar mass, not a printed value. Where two headings read alike, the source gives them in different places. A value given as a limit tells only on which side of the number the result lay.

The target of assay [1] is T1, E. coli DnaE (DNA polymerase III α-subunit from Escherichia coli) (Escherichia coli, UniProt P10443).
T1 construct: EcDnaE (E. coli DnaE residues 1-1160); 6xHis (N); made in house; host or cells: E. coli BL21(DE3)
As to the kind of experiment: In vitro DnaE single enzyme assay (E. coli). It counts as biochemical. An outline of the steps: (§1)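 His-tagged E. coli DnaE (residues 1-1160, 0.8 μg/ml) or S. aureus DnaE (residues 1-1065, 0.05 μg/ml) incubated 30 min at 30° C. with activated calf thymus DNA, 0.025 mM dATP/dGTP/dCTP and 0.011 mM 3H-dTTP in Tris pH 7.5/Mg acetate. TCA-precipitated labelled DNA counted.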

For assay [2], the target named is T2, S. aureus DnaE (DNA polymerase III α-subunit homolog from Staphylococcus aureus) (Staphylococcus aureus, UniProt Q5HF71).
T2 construct: SaDnaE (S. aureus DnaE residues 1-1065); 6xHis (N); made in house; host or cells: E. coli BL21-AI
T2 sequence (Q5HF71 1-1065): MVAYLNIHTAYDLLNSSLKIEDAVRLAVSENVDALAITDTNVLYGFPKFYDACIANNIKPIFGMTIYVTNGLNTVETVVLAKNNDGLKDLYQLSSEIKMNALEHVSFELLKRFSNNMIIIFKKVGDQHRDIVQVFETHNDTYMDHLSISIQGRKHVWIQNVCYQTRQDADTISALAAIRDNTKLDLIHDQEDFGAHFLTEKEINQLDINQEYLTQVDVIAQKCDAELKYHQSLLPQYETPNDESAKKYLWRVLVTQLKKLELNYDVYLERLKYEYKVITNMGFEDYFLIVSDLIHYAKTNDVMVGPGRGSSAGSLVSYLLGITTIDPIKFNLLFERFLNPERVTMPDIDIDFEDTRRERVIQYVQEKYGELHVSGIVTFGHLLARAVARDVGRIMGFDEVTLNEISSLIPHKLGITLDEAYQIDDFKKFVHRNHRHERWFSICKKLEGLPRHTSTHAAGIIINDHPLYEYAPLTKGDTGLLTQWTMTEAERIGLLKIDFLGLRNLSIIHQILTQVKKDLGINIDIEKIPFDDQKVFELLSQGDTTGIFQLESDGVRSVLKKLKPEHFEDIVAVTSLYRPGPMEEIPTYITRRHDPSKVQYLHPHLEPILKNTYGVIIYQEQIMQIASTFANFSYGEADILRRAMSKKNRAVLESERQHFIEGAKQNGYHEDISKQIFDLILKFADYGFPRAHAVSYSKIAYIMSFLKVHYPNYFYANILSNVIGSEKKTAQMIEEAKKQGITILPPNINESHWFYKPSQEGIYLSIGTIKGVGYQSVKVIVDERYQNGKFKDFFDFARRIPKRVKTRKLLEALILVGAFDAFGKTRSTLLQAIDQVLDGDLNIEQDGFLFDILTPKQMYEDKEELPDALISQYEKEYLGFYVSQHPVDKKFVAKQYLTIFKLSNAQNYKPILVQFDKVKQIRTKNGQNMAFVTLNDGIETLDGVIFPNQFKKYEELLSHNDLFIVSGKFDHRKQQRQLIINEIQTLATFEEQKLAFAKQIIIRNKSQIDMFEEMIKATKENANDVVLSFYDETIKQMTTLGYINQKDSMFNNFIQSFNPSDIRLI
As to the kind of experiment: biochemical. The format is biochemical. In short, it runs like this:
as §1

Assay [3] has as its system Escherichia coli MB5747 (LS 883, tolC). In words: microbe, parasite or virus in culture. The format is cell-based. The note with it: Escherichia coli, read-out: E. coli LS883 tolC (MIC), MHII broth; * = some reduction of growth versus control at […].
In assay [4] the test system is Pseudomonas aeruginosa MB5890 (CB1101, efflux-deleted). In words: microbe, parasite or virus in culture. It counts as cell-based. The note with it: Pseudomonas aeruginosa, read-out: P. aeruginosa MB5890 efflux-del (MIC), MHII broth; * = some reduction of growth versus control at […].
The subject of assay [5] is Staphylococcus aureus MB6266 (MRSA COL). In words: Nargenicin antibacterial assay (MIC), S. aureus. The note with it: Staphylococcus aureus, MRSA, read-out: S. aureus COL (MIC), MHII broth + 50% human serum; * = some reduction of growth versus control at […]. It counts as cell-based.
Assay [6] relates to Streptococcus pneumoniae MB6357 (CL 2883). In words: Nargenicin antibacterial assay (MIC), S. pneumoniae. The format is cell-based. The note with it: Streptococcus pneumoniae, read-out: S. pneumoniae MB2883 (MIC), Isosensitest broth; * = some reduction of growth versus control at […].
Where [7] appears, read: read-out: E. coli DnaE IC50 (converted).
[8] abbreviates: read-out: S. aureus DnaE IC50 (converted).

T1 sequence (P10443 whole entry, the tested form may be a part): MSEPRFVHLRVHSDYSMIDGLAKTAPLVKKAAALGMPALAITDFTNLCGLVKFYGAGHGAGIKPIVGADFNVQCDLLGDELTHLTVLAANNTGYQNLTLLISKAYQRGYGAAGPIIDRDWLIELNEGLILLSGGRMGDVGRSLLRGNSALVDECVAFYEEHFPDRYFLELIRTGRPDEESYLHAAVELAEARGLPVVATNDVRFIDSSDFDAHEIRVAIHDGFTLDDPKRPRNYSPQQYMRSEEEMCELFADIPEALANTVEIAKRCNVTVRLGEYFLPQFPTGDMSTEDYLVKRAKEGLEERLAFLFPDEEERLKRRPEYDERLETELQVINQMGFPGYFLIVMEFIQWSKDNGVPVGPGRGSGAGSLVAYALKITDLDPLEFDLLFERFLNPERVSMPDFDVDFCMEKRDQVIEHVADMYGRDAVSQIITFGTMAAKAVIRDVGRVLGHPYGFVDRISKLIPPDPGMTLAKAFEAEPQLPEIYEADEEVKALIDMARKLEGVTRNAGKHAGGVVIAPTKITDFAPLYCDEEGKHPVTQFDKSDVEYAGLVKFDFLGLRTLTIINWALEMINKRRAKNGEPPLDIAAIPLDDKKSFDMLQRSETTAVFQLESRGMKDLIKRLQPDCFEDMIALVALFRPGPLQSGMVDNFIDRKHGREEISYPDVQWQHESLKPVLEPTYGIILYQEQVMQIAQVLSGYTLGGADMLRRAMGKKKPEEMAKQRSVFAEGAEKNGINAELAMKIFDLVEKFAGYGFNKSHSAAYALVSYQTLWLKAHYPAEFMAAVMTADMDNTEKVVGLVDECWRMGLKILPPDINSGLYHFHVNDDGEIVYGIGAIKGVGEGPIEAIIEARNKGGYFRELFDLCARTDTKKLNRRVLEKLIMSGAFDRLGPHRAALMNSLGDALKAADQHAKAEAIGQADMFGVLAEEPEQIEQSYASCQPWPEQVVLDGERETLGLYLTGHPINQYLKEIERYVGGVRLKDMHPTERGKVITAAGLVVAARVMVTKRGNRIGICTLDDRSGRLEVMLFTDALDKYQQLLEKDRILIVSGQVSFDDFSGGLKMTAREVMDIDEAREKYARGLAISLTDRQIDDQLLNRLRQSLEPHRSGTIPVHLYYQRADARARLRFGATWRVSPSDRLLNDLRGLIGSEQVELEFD

In the case of `CO[C@H]1C[C@H]2C=C[C@H]3[C@H]4O[C@]2(/C(C)=C/[C@@H](C)[C@@H]([C@@H](C)OC(=O)NC(=O)C(Cl)(Cl)Cl)OC1=O)[C@@H]3[C@H](OC(=O)NC(=O)C(Cl)(Cl)Cl)[C@@H](C)[C@H]4OC(=O)c1ccc[nH]1` [Example 1, (3R,4S,7S,8aS,10aR,11R,12R,13R,14R,14aS,14bS,E)-7-methoxy-1,3,13-trimethyl-6-oxo-14-(((2,2,2-trichloroacetyl)carbamoyl)oxy)-4-((R)-1-(((2,2,2-trichloroacetyl)carbamoyl)oxy)ethyl)-3,4,6,7,8,8a,10a,11,12,13,14,14 a-dodecahydro-11,14b-epoxynaphtho[2,1-e]oxecin-12-yl 1H-pyrrole-2-carboxylate], the IC50 was 67.2 µM in assay [1] (E. coli DnaE IC50) and 34.7 µM in assay [2] (S. aureus DnaE IC50). For the same molecule, the MIC was over 8 µg/mL in assay [3], over 128 µg/mL in assay [4], over 8 µg/mL in assay [5] and over 128 µg/mL in assay [6].

In the case of `CO[C@H]1C[C@H]2C=C[C@H]3[C@H]4O[C@]2(/C(C)=C/[C@@H](C)[C@@H]([C@@H](C)OC(=O)C[N+]25CC[N+](CC(N)=O)(CC2)CC5)OC1=O)[C@@H]3[C@H](O)[C@@H](C)[C@H]4OC(=O)c1ccc[nH]1.O=S(=O)([O-])C(F)(F)F.[Br-]` [Example 74], the IC50 in assay [1] (setting [7]) is 20.9 µM; in assay [2] (S. aureus DnaE IC50), under 0.00628 µM. The MIC in assay [3] is 0.5 µg/mL; in assay [4], 32 µg/mL; in assay [5] it was 0.5 µg/mL; in assay [6], over 128 µg/mL.

For `CO[C@H]1CC2C=C[C@H]3[C@H]4O[C@]2(/C(C)=C/[C@@H](C)[C@@H](C(C)O)OC1=O)[C@@H]3[C@H](O)[C@@H](C)[C@H]4OC(=O)c1ccc[nH]1` (stereo partly drawn) [Example 145, Nargenicin A1, reference compound], the figures for the IC50 in assay [1] (setting [7]) and in assay [2] (S. aureus DnaE IC50) were 1.75 µM and under 0.0116 µM, respectively. The MIC is 0.25 µg/mL (≈ 0.485 µM) in assay [3], 4 µg/mL (≈ 7.76 µM) in assay [4], 0.25 µg/mL in assay [5] and over 128 µg/mL in assay [6].

In the case of `CO[C@H]1C[C@H]2[C@@H](O)C[C@H]3[C@H]4O[C@]2(/C(C)=C/[C@@H](C)[C@@H]([C@@H](C)O)OC1=O)[C@@H]3[C@H](O)[C@@H](C)[C@H]4OC(=O)c1ccc[nH]1` [Example 193], the half-maximal inhibitory concentration (IC50) in assay [1] (setting [7]) was over 187 µM; in assay [2] (S. aureus DnaE IC50), 1.87 µM. Also, the MIC in assay [3] was 64 µg/mL (≈ 120 µM); in assay [4] it was over 128 µg/mL; in assay [5] it was over 128 µg/mL; in assay [6], over 128 µg/mL.

Regarding `CO[C@H]1C[C@H]2C=CC3C4[C@H](O)[C@@H](C)[C@@H](OC(=O)c5ccc[nH]5)[C@@H]3O[C@]42/C(C)=C/[C@@H](C)[C@@H]([C@@H](C)OC(=O)n2nnnc2N)OC1=O` [Example 64], the IC50 in assay [1] (setting [7]) was 46.3 µM; in assay [2] (S. aureus DnaE IC50), under 0.00957 µM. In addition, the MIC in assay [3] was 4 µg/mL (≈ 6.38 µM); in assay [4], 128 µg/mL (≈ 204 µM); in assay [5], 4 µg/mL; in assay [6] it was over 128 µg/mL.

`CO[C@H]1C[C@H]2C=C[C@H]3[C@H]4O[C@]2(/C(C)=C/[C@@H](C)[C@@H]([C@@H](C)OC(N)=O)OC1=O)[C@@H]3[C@H](OC(N)=O)[C@@H](C)[C@H]4OC(=O)c1ccc[nH]1` [Example 4]: the IC50 in assay [1] (setting [7]) was over 166 µM; in assay [2] (S. aureus DnaE IC50), 1.16 µM. The MIC in assay [3], in assay [4], in assay [5] and in assay [6] was over 128 µg/mL in each case.

Turning to `CO[C@H]1C[C@H]2C=C[C@H]3[C@H]4O[C@]2(/C(C)=C/[C@H](C)[C@@H](c2ccccc2)OC1=O)[C@@H]3[C@H](O)[C@@H](C)[C@H]4OC(=O)c1ccc[nH]1` [Example 53], the IC50 was 73 µM in assay [1] (setting [7]) and 0.183 µM in assay [2] (S. aureus DnaE IC50). Besides, the MIC in assay [3], in assay [4], in assay [5] and in assay [6] was over 128 µg/mL in each case.

In the case of `CO[C@H]1C[C@H]2C=C[C@H]3[C@H]4O[C@]2(/C(C)=C/[C@@H](C)[C@@H]([C@@H](C)OC(=O)NCC(=O)O)OC1=O)[C@@H]3[C@H](O)[C@@H](C)[C@H]4OC(=O)c1ccc[nH]1` [Example 12], the IC50 was 114 µM in assay [1] (setting [7]) and under 0.00973 µM in assay [2] (S. aureus DnaE IC50). In addition, the MIC was 32 µg/mL (≈ 51.9 µM) in assay [3], over 128 µg/mL in assay [4], over 128 µg/mL in assay [5] and over 128 µg/mL in assay [6].

In the case of `COC1CC2C=CC3C4OC2(C(C)=CC(C)C(C(C)OC(=O)NCCCN2CCN(C)CC2)OC1=O)C3C(O)C(C)C4OC(=O)c1ccc[nH]1` (stereo not drawn) [Example 25], the IC50 in assay [1] (E. coli DnaE IC50) is over 143 µM; in assay [2] (setting [8]), 0.03 µM. Besides, the MIC in assay [3] was 32 µg/mL (≈ 45.8 µM); in assay [4] it was over 128 µg/mL; in assay [5] it was 32 µg/mL; in assay [6], over 128 µg/mL.

As for `CO[C@H]1C[C@H]2C=C[C@H]3[C@H]4O[C@]2(/C(C)=C/[C@@H](C)[C@@H]([C@@H](C)OC(=O)c2ccccc2)OC1=O)[C@@H]3[C@H](O)[C@@H](C)[C@H]4OC(=O)c1ccc[nH]1` [Example 67], the IC50 is 12.9 µM in assay [1] (E. coli DnaE IC50) and 0.0113 µM in assay [2] (setting [8]). Also, the MIC in assay [3], in assay [4], in assay [5] and in assay [6] was over 128 µg/mL each time.

Consider `CO[C@H]1C[C@H]2C=C[C@H]3[C@H]4O[C@]2(/C(C)=C/[C@@H](C)[C@@H]([C@@H](C)O)OC1=O)[C@@H]3[C@H](O)[C@@H](C)[C@H]4OC(=O)c1cccn1C(C)=O` [Example 203], for which the half-inhibitory concentration (IC50) is 11.7 µM in assay [1] (setting [7]) and under 0.0108 µM in assay [2] (S. aureus DnaE IC50). Moreover, the MIC in assay [3] was under 0.125 µg/mL; in assay [4], 16 µg/mL (≈ 28.7 µM); in assay [5], under 0.125 µg/mL; in assay [6], 128 µg/mL (≈ 230 µM).

For `CO[C@H]1C[C@H]2C=CC3C4[C@H](O)[C@@H](C)[C@@H](OC(=O)c5ccc(OC(C)=O)n5O)[C@@H]3O[C@]42/C(C)=C/[C@@H](C)[C@@H]([C@@H](C)O)OC1=O` [Example 173], the concentration for half-maximal inhibition (IC50) in assay [1] (setting [7]) is over 170 µM; in assay [2] (S. aureus DnaE IC50), 0.543 µM. Besides, the MIC in assay [3] is 8 µg/mL (≈ 13.6 µM); in assay [4], 16 µg/mL (≈ 27.1 µM); in assay [5] it was over 128 µg/mL; in assay [6], 128 µg/mL (≈ 217 µM).

Regarding `C=CC[C@@H]1OC(=O)[C@@H](OC)C[C@H]2C=C[C@H]3[C@H]4O[C@]2(/C(C)=C/[C@H]1C)[C@@H]3[C@H](O)[C@@H](C)[C@H]4OC(=O)c1ccc[nH]1` [Example 54], the results for the IC50 in assay [1] (setting [7]) and in assay [2] (S. aureus DnaE IC50) were 60.6 µM and 0.088 µM, respectively. Also, the MIC in assay [3] was 64 µg/mL (≈ 125 µM); in assay [4] it was over 128 µg/mL; in assay [5], 64 µg/mL; in assay [6], over 128 µg/mL.

As for `CO[C@H]1C[C@H]2C=CC3C4[C@H](OC(=O)C(=O)OCCN5CCN(C)CC5)[C@@H](C)[C@@H](OC(=O)c5ccc[nH]5)[C@@H]3O[C@]42/C(C)=C/[C@@H](C)[C@@H]([C@@H](C)OC(=O)C(=O)OCCN2CCN(C)CC2)OC1=O.O=C(O)C(F)(F)F` [Example 209], the values for the IC50 in assay [1] (setting [7]) and in assay [2] (S. aureus DnaE IC50) were 16.6 µM and under 0.00585 µM, respectively. Besides, the MIC was 4 µg/mL in assay [3], over 128 µg/mL in assay [4], 4 µg/mL in assay [5] and over 128 µg/mL in assay [6].

The values above are taken from US9944654B2, “Nargenicin compounds and uses thereof as antibacterial agents” (priority 2014, dated 2018).
